Reference: US6610675B1 (priority 1980, dated 2003)
Marks after values point to notes of the source that are not given here.

Assays:
Assay type in all cases: in vivo, rat
[1] = system: blank cotton pellet granuloma; experiment: Blank cotton pellet granuloma assay (intravenous administration); conditions: 3 days
Method: A further test was undertaken to determine the thymolytic activity of a representative species of the invention as compared to betamethasone 17-valerate. In this test, the drugs were administered intravenously to rats, while using a blank cotton pellet granuloma assay. Male Sprague-Dawley rats, each weighing about 185 grams (166-196 grams), were used. Two cotton pellets, each weighing 30 mg and containing no test compounds, were sterilized and implanted sub-cutaneously into the back of each test animal. This day was considered day 0 of implantation. Test compounds suspended in 0.8% polysorbate 80 were administered intravenously once daily for 3 consecutive days beginning with day 1. On day 5, the animals were sacrificed and the two pellets, with their respective granulomas, were removed, dried overnight in an oven at 50° C. and weighed (dry granuloma weight). The thymi and final body weights were also recorded.
In the foregoing tests, there was determined the deactivation of the representative species of the present soft steroids administered intravenously to rats. […] The test compounds were administered intravenously to rats to check the test compounds also for systemic anti-inflammatory activity as compared to betamethasone 17-valerate. The test compounds were found lower in the inhibition of granulation tissue formation and also in the thymus involution activity than betamethasone 17-valerate. From the results of the tests, it is presumed that the compounds which will not be readily subjected to metabolism (deactivation) have a systemic anti-inflammatory activity, as is the case with betamethasone 17-valerate.

thymus weight in rats = experiment: Thymus inhibition testing (subcutaneous administration); conditions: for TED50: dose required to achieve 50% inhibition of thymi weight
Summary of the method: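 Male Sprague-Dawley rats were dosed systemically. On the fifth day, 48 hours after the last treatment, animals were sacrificed and thymus weights recorded.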

[2] = system: granulation tissue formation caused by implantation of cotton pellets; experiment: Granuloma formation test (local cotton pellet granuloma assay); conditions: for Body wt. gain / Granulation tissue Dry wt. / Granulation tissue Dry wt. Inhibition / Granulation tissue Wet wt. / Granulation tissue Wet wt. Inhibition / Thymus wt.: Table IV; for Relative potency (ED40) / Relative potency (ED60): chloromethyl 11β-hydroxy-17α-isopropoxycarbonyloxyandrost-4-en-3-one-17β-carboxylate = 1; for ED40: dose causing 40% inhibition of granulation tissue weight; for ED60: dose causing 60% inhibition of granulation tissue weight
Method: The test compound was dissolved in acetone and aliquots of varying concentrations were injected into cotton pellets. The pellets were dried and then one pellet was implanted beneath the skin of each test rat. Six days later, the animals were sacrificed and the granulation tissue (granuloma) which formed in and around the implanted pellet was removed, dried and weighed. In addition, the thymi and adrenals were removed and weighed.

[3] = Table VII, 1 mg/kg/day s.c., three days
[4] = Table VII, 3 mg/kg/day s.c., three days
[5] = Table VII, 10 mg/kg/day s.c., three days
[6] = Table VII, 30 mg/kg/day s.c., three days
[7] = Table VIII, 10 mg/kg/day s.c., three days
[8] = Table X, betamethasone 17-valerate = 1
[9] = Table X, dose required to achieve 40% inhibition of thymi weight, subcutaneous
[10] = Table XII, hydrocortisone 17-butyrate = 1
[11] = Table XII, thymus inhibition effect, subcutaneously
[12] = Table XII, anti-inflammatory effect in cotton pellet granuloma
[13] = dose causing 50% inhibition of granulation tissue weight
[14] = Table VII, 100 mg/kg/day s.c., three days

CCOC(=O)O[C@]1(C(=O)OCCl)[C@H](C)C[C@H]2[C@@H]3CCC4=CC(=O)C=C[C@]4(C)[C@@]3(F)[C@@H](O)C[C@@]21C [chloromethyl 17α-ethoxycarbonyloxy-9α-fluoro-11β-hydroxy-16α-methylandrosta-1,4-dien-3-one-17β-carboxylate]
Body wt. gain ([1]; 1 mg/kg/day i.v.): 14.1 ± 1.4 g
Dry granuloma wt. ([1]; 1 mg/kg/day i.v.): 50.1 ± 6.9 mg
Dry granuloma wt. Inhibition ([1]; 1 mg/kg/day i.v.): 20.1%
Thymus wt. ([1]; 1 mg/kg/day i.v.): 373 ± 25 mg
Thymus wt. Decrease ([1]; 1 mg/kg/day i.v.): 11.6%
Body wt. gain ([1]; 3 mg/kg/day i.v.): 14.2 ± 1.3 g
Dry granuloma wt. ([1]; 3 mg/kg/day i.v.): 49.3 ± 5.1 mg
Dry granuloma wt. Inhibition ([1]; 3 mg/kg/day i.v.): 21.4%
Thymus wt. ([1]; 3 mg/kg/day i.v.): 338 ± 20 mg
Thymus wt. Decrease ([1]; 3 mg/kg/day i.v.): 19.9%
Body wt. gain ([1]; 10 mg/kg/day i.v.): 0.3 ± 1.7 g
Dry granuloma wt. ([1]; 10 mg/kg/day i.v.): 45.7 ± 4.6 mg
Dry granuloma wt. Inhibition ([1]; 10 mg/kg/day i.v.): 27.1%
Thymus wt. ([1]; 10 mg/kg/day i.v.): 209 ± 31 mg
Thymus wt. Decrease ([1]; 10 mg/kg/day i.v.): 50.5%
Body wt. gain ([1]; 30 mg/kg/day i.v.): -18.5 ± 2.3 g
Dry granuloma wt. ([1]; 30 mg/kg/day i.v.): 32.7 ± 3.0 mg
Dry granuloma wt. Inhibition ([1]; 30 mg/kg/day i.v.): 47.8%
Thymus wt. ([1]; 30 mg/kg/day i.v.): 71 ± 4 mg
Thymus wt. Decrease ([1]; 30 mg/kg/day i.v.): 83.2%
Body weight gain (thymus weight in rats; [3]): 13.1 ± 1.0 g
Thymus (thymus weight in rats; [3]): 428 ± 20 mg
Thymus Inhibition (thymus weight in rats; [3]): 9.1%
Body weight gain (thymus weight in rats; [4]): 12.7 ± 1.4 g
Thymus (thymus weight in rats; [4]): 412 ± 20 mg
Thymus Inhibition (thymus weight in rats; [4]): 12.5%
Body weight gain (thymus weight in rats; [5]): 9.7 ± 1.3 g
Thymus (thymus weight in rats; [5]): 405 ± 21 mg
Thymus Inhibition (thymus weight in rats; [5]): 14.0%
Body weight gain (thymus weight in rats; [6]): 4.4 ± 0.7 g
Thymus (thymus weight in rats; [6]): 292 ± 15 mg
Thymus Inhibition (thymus weight in rats; [6]): 38.0%
Body weight gain (thymus weight in rats; [7]): 14.2 ± 1.9 g
Thymus wt. (thymus weight in rats; [7]): 533 ± 31 mg
Thymus wt. Inhibition (thymus weight in rats; [7]): 3.1%
Relative Potency (TED40) (thymus weight in rats; [8]): 0.0058
Relative Potency (TED50) (thymus weight in rats; [8]): <0.011
TED40 (thymus weight in rats; [9]): 51.5 mg
TED50 (thymus weight in rats; Table X, subcutaneous): <51.5^a mg
Relative Potency (TED40) (thymus weight in rats; [10]): 1/40
TED40 (thymus weight in rats; [11]): 51.5 mg/kg
Body wt. gain ([2]; 0.3 μg/pellet): 32.4 ± 1.1 g
Granulation tissue Dry wt. ([2]; 0.3 μg/pellet): 57.3 ± 5.0 mg
Granulation tissue Dry wt. Inhibition ([2]; 0.3 μg/pellet): 29.4%
Granulation tissue Wet wt. ([2]; 0.3 μg/pellet): 472 ± 23 mg
Granulation tissue Wet wt. Inhibition ([2]; 0.3 μg/pellet): 16.6%
Thymus wt. ([2]; 0.3 μg/pellet): 492 ± 26 mg
Body wt. gain ([2]; 1 μg/pellet): 37.3 ± 1.5 g
Granulation tissue Dry wt. ([2]; 1 μg/pellet): 36.4 ± 2.4 mg
Granulation tissue Dry wt. Inhibition ([2]; 1 μg/pellet): 55.2%
Granulation tissue Wet wt. ([2]; 1 μg/pellet): 388 ± 31 mg
Granulation tissue Wet wt. Inhibition ([2]; 1 μg/pellet): 31.4%
Thymus wt. ([2]; 1 μg/pellet): 519 ± 22 mg
Body wt. gain ([2]; 3 μg/pellet): 34.3 ± 1.1 g
Granulation tissue Dry wt. ([2]; 3 μg/pellet): 27.4 ± 2.9 mg
Granulation tissue Dry wt. Inhibition ([2]; 3 μg/pellet): 66.3%
Granulation tissue Wet wt. ([2]; 3 μg/pellet): 331 ± 11 mg
Granulation tissue Wet wt. Inhibition ([2]; 3 μg/pellet): 41.5%
Thymus wt. ([2]; 3 μg/pellet): 472 ± 16 mg
Body wt. gain ([2]; 10 μg/pellet): 36.1 ± 1.1 g
Granulation tissue Dry wt. ([2]; 10 μg/pellet): 22.1 ± 3.6 mg
Granulation tissue Dry wt. Inhibition ([2]; 10 μg/pellet): 72.8%
Granulation tissue Wet wt. ([2]; 10 μg/pellet): 313 ± 13 mg
Granulation tissue Wet wt. Inhibition ([2]; 10 μg/pellet): 44.7%
Thymus wt. ([2]; 10 μg/pellet): 521 ± 35 mg
Body wt. gain ([2]; 30 μg/pellet): 31.3 ± 1.4 g
Granulation tissue Dry wt. ([2]; 30 μg/pellet): 20.4 ± 2.4 mg
Granulation tissue Dry wt. Inhibition ([2]; 30 μg/pellet): 74.9%
Granulation tissue Wet wt. ([2]; 30 μg/pellet): 290 ± 10 mg
Granulation tissue Wet wt. Inhibition ([2]; 30 μg/pellet): 48.8%
Thymus wt. ([2]; 30 μg/pellet): 505 ± 26 mg
ED50 [2, 12]: 1.07 μg/pellet
Relative potency (ED40) [2]: 653
Relative potency (ED60) [2]: 283
ED40 [2]: 0.47 μg/pellet
ED50 [2, 13]: 1.07 μg/pellet
ED60 [2]: 2.44 μg/pellet

CC(C)OC(=O)O[C@]1(C(=O)OCCl)CC[C@H]2[C@@H]3CCC4=CC(=O)CC[C@]4(C)[C@H]3[C@@H](O)C[C@@]21C [chloromethyl 11β-hydroxy-17α-isopropoxycarbonyloxyandrost-4-en-3-one-17β-carboxylate]
Body weight gain (thymus weight in rats; [4]): 14.7 ± 0.6 g
Thymus (thymus weight in rats; [4]): 439 ± 18 mg
Thymus Inhibition (thymus weight in rats; [4]): 6.8%
Body weight gain (thymus weight in rats; [5]): 10.2 ± 0.7 g
Thymus (thymus weight in rats; [5]): 386 ± 17 mg
Thymus Inhibition (thymus weight in rats; [5]): 18.0%
Body weight gain (thymus weight in rats; [6]): 6.8 ± 2.1 g
Thymus (thymus weight in rats; [6]): 291 ± 22 mg
Thymus Inhibition (thymus weight in rats; [6]): 38.2%
Body weight gain (thymus weight in rats; [14]): 2.8 ± 1.8 g
Thymus (thymus weight in rats; [14]): 185 ± 17 mg
Thymus Inhibition (thymus weight in rats; [14]): 60.7%
Relative Potency (TED40) (thymus weight in rats; [8]): 0.01
Relative Potency (TED50) (thymus weight in rats; [8]): 0.01
TED40 (thymus weight in rats; [9]): 31.0 mg
TED50 (thymus weight in rats; Table X, subcutaneous): 58.5 mg
Relative Potency (TED40) (thymus weight in rats; [10]): 1/24
TED40 (thymus weight in rats; [11]): 31.0 mg/kg
Body wt. gain ([2]; 100 μg/pellet): 34.9 ± 2.7 g
Granulation tissue Dry wt. ([2]; 100 μg/pellet): 70.0 ± 6.0 mg
Granulation tissue Dry wt. Inhibition ([2]; 100 μg/pellet): 13.8%
Granulation tissue Wet wt. ([2]; 100 μg/pellet): 485 ± 36 mg
Granulation tissue Wet wt. Inhibition ([2]; 100 μg/pellet): 14.3%
Thymus wt. ([2]; 100 μg/pellet): 452 ± 29 mg
Body wt. gain ([2]; 300 μg/pellet): 33.9 ± 1.6 g
Granulation tissue Dry wt. ([2]; 300 μg/pellet): 50.9 ± 2.8 mg
Granulation tissue Dry wt. Inhibition ([2]; 300 μg/pellet): 37.3%
Granulation tissue Wet wt. ([2]; 300 μg/pellet): 431 ± 20 mg
Granulation tissue Wet wt. Inhibition ([2]; 300 μg/pellet): 23.9%
Thymus wt. ([2]; 300 μg/pellet): 469 ± 25 mg
Body wt. gain ([2]; 1000 μg/pellet): 34.0 ± 2.6 g
Granulation tissue Dry wt. ([2]; 1000 μg/pellet): 24.1 ± 2.7 mg
Granulation tissue Dry wt. Inhibition ([2]; 1000 μg/pellet): 70.3%
Granulation tissue Wet wt. ([2]; 1000 μg/pellet): 305 ± 16 mg
Granulation tissue Wet wt. Inhibition ([2]; 1000 μg/pellet): 46.1%
Thymus wt. ([2]; 1000 μg/pellet): 464 ± 30 mg
Body wt. gain ([2]; 3000 μg/pellet): 32.4 ± 2.3 g
Granulation tissue Dry wt. ([2]; 3000 μg/pellet): 20.3 ± 1.3 mg
Granulation tissue Dry wt. Inhibition ([2]; 3000 μg/pellet): 75.0%
Granulation tissue Wet wt. ([2]; 3000 μg/pellet): 292 ± 7 mg
Granulation tissue Wet wt. Inhibition ([2]; 3000 μg/pellet): 48.4%
Thymus wt. ([2]; 3000 μg/pellet): 459 ± 24 mg
ED50 [2, 12]: 460 μg/pellet
Relative potency (ED40) [2]: 1
Relative potency (ED60) [2]: 1
ED40 [2]: 307 μg/pellet
ED50 [2, 13]: 460 μg/pellet
ED60 [2]: 690 μg/pellet
